pIC50: −log10 of the molar value. Where a name gives a salt, the structure may show the parent alone.
Biological target: MK-2 (Homo sapiens, UniProt P49137)
Assay: Determination of MK-2 IC50 (phosphorylation of HSP-peptide, anion exchange resin capture assay)
Format: biochemical
Conditions: additional values are replicate IC50 experiments; mixture of stereoisomers implied unless otherwise noted; read-out: MK-2 Avg. IC50

MK-2, sequence (P49137 whole entry, species assumed): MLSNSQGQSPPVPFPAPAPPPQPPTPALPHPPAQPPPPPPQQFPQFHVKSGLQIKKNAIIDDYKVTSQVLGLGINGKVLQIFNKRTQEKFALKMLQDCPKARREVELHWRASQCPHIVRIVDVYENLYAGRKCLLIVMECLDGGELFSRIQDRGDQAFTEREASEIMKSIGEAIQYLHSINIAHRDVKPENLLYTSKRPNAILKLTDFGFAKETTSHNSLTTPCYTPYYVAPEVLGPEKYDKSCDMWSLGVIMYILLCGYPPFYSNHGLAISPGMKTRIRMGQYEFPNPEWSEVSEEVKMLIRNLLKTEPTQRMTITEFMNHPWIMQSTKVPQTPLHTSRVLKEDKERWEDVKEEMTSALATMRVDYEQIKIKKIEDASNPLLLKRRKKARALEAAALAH

Row | Structure (SMILES) | pIC50
1 | COc1ccc2[nH]c3c(c2c1)CCN(C(C)C)C3C(=O)O (stereo not drawn) [Example 157, sodium 2-isopropyl-6-methoxy-2,3,4,9-tetrahydro-1H-beta-carboline-1-carboxylate] | 3.77
2 | COc1ccc2[nH]c3c(c2c1)CCN1C(=O)NC(=O)C31 (stereo not drawn) [Example 158, 8-methoxy-5,6,11,11b-tetrahydro-1H-imidazo[1′,5′:1,2]pyrido[3,4-b]indole-1,3(2H)-dione] | 3.76
3 | COC(=O)c1cccc(COc2ccc3[nH]c4c(c3c2)CCNC4C(=O)O)c1 (stereo not drawn) [Example 159, 6-{[3-(methoxycarbonyl)benzyl]oxy}-2,3,4,9-tetrahydro-1H-beta-carboline-1-carboxylic acid hydrochloride] | 3.74
4 | COc1ccc2[nH]c3c(c2c1)CCNC3C(=O)NN (stereo not drawn) [Example 161, 6-methoxy-2,3,4,9-tetrahydro-1H-beta-carboline-1-carbohydrazide] | < 3.70
5 | COC(=O)C12CCC(=O)N1CCc1c2[nH]c2ccc(OC)cc12 (stereo not drawn) [Example 162, methyl 8-methoxy-3-oxo-2,3,6,11-tetrahydro-1H-indolizino[8,7-b]indole-11b(5H)-carboxylate] | < 3.70
6 | COc1ccc2[nH]c3c(c2c1)CCN1C(=O)CCC31C(=O)O (stereo not drawn) [Example 163, 8-methoxy-3-oxo-2,3,6,11-tetrahydro-1H-indolizino[8,7-b]indole-11b(5H)-carboxylic acid] | < 3.70
7 | COC(=O)C1(CCl)NCCc2c1[nH]c1ccccc21 (stereo not drawn) [Example 164, methyl 1-(chloromethyl)-2,3,4,9-tetrahydro-1H-beta-carboline-1-carboxylate] | < 3.70
8 | COc1ccc2[nH]c3c(c2c1)CCNC3CC(=O)O (stereo not drawn) [Example 165, (6-methoxy-2,3,4,9-tetrahydro-1H-beta-carbolin-1-yl)acetic acid hydrochloride] | < 3.70
9 | COc1ccc2[nH]c3c(c2c1)CCNC3Cc1nnn[nH]1 (stereo not drawn) [Example 166, 6-methoxy-1-(1H-tetraazol-5-ylmethyl)-2,3,49-tetrahydro-1H-beta-carboline hydrochloride hydrate] | < 3.70
10 | COC(=O)CC1NCCc2c1[nH]c1ccc(OC)cc21 (stereo not drawn) [Example 167, methyl(6-methoxy-2,3,4,9-tetrahydro-1H-beta-carbolin-1-yl)acetate] | < 3.70
11 | COC(=O)C1c2[nH]c3ccc(OC)cc3c2CCN1Cc1ccccc1 (stereo not drawn) [Example 168, methyl 2-benzyl-6-methoxy-2,3,4,9-tetrahydro-1H-beta-carboline-1-carboxylate] | < 3.70
12 | COC(=O)C1c2c(c3cc(OC)ccc3n2CO)CCN1C (stereo not drawn) [Example 169, methyl 9-(hydroxymethyl)-6-methoxy-2-methyl-2,3,4,9-tetrahydro-1H-beta-carboline-1-carboxylate] | < 3.70
13 | CCOC(=O)C1(C(=O)OCC)NCCc2c1[nH]c1ccc(OC)cc21 [Example 171, diethyl 6-methoxy-2,3,4,9-tetrahydro-1H-beta-carboline-1,1-dicarboxylate] | < 3.70
14 | COC(=O)C1(Cc2ccc(Cl)cc2)c2[nH]c3ccc(O)cc3c2CCN1C (stereo not drawn) [Example 173, methyl 1-[4-chlorobenzyl)-6-hydroxy-2-methyl-2,3,4,9-tetrahydro-1H-beta-carboline-1-carboxylate] | < 3.70
15 | COC(=O)C1c2[nH]c3ccc(O)cc3c2CCN1C (stereo not drawn) [Example 174, methyl 6-hydroxy-2-methyl-2,3,4,9-tetrahydro-1H-beta-carboline-1-carboxylate] | < 3.70
16 | CCOC(=O)C1Cc2c([nH]c3ccc(OC)cc23)C(C(=O)O)N1 (stereo not drawn) [Example 177, 3-(ethoxycarbonyl)-6-methoxy-2,3,4,9-tetrahydro-1H-beta-carboline-1-carboxylic acid] | < 3.70
17 | COc1ccc2[nH]c3c(c2c1)CCNC3(CCC(=O)O)C(=O)O (stereo not drawn) [Example 178, 1-(2-carboxyethyl)-6-methoxy-2,3,4,9-tetrahydro-1H-beta-carboline-1-carboxylic acid] | < 3.70
18 | COc1ccc2[nH]c3c(c2c1)CCNC3(CCCC(=O)O)C(=O)O (stereo not drawn) [Example 179, 1-(3-carboxypropyl)-6-methoxy-2,3,4,9-tetrahydro-1H-beta-carboline-1-carboxylic acid] | < 3.70
19 | COc1ccc2[nH]c3c(c2c1)CCN1C3C(=O)NC1(C)C (stereo not drawn) [Example 180, 8-methoxy-3,3-dimethyl-2,3,5,6,11,11b-hexahydro-1H-imidazo[1′,5′:1,2]pyrido[3,4-b]indol-1-one] | < 3.70
20 | COC(=O)C1c2[nH]c3ccc(OC)cc3c2CCN1CCCO[Si](C)(C)C(C)(C)C (stereo not drawn) [Example 181, methyl 2-(3-{[tert-butyl(dimethyl)silyl]oxy}propyl)-6-methoxy-2,3,4,9-tetrahydro-1H-beta-carboline-1-carboxylate] | < 3.70
21 | COc1ccc2c(c1)c1c(n2C)C(C(=O)O)NCC1 (stereo not drawn) [Example 182, 6-methoxy-9-methyl-2,3,4,9-tetrahydro-1H-beta-carboline-1-carboxylic acid] | < 3.70

Row | Structure (SMILES) | pIC50
22 | COc1ccc2[nH]c3c(c2c1C)CCNC3C(=O)O (stereo not drawn) [Example 183, 6-methoxy-5-methyl-2,3,4,9-tetrahydro-1H-beta-carboline-1-carboxylic acid hydrochloride] | < 3.70
23 | COC(=O)C1NC(CO)Cc2c1[nH]c1ccc(OC)cc21 (stereo not drawn) [Example 184, methyl 3-(hydroxymethyl)-6-methoxy-2,3,4,9-tetrahydro-1H-beta-carboline-1-carboxylate] | < 3.70
24 | COc1ccc2[nH]c3c(c2c1)C(Cc1ccc(OC(F)(F)F)cc1)CNC3C(=O)O (stereo not drawn) [Example 185, 6-methoxy-4-[4-(trifluoromethoxy)benzyl]-2,3,4,9-tetrahydro-1H-beta-carboline-1-carboxylic acid] | < 3.70
25 | COc1ccc2[nH]c3c(c2c1)C1(CCCCC1)CNC3C(=O)O (stereo not drawn) [Example 186, 2′,3′,4′,9′-tetrahydro-6′-methoxy-spiro[cyclohexane-1,4′-[4H]pyrido[3,4-b]indole]-1-carboxylic acid] | < 3.70
26 | COc1ccc2[nH]c3c(c2c1)CC(CN(C)C)NC3C(=O)O (stereo not drawn) [Example 187, 3-[(dimethylamino)methyl]-6-methoxy-2,3,4,9-tetrahydro-1H-beta-carboline-1-carboxylic acid trifluoroacetate] | < 3.70
27 | CCCC1Cc2c([nH]c3ccc(OC)cc23)C(C(=O)O)N1 (stereo not drawn) [Example 190, 6-methoxy-3-propyl-2,3,4,9-tetrahydro-1H-beta-carboline-1-carboxylic acid] | < 3.70
28 | COc1ccc2[nH]c3c(c2c1)C1CCCCC1NC3C(=O)O (stereo not drawn) [Example 191, 10-methoxy-2,3,4,4a,5,6,7,11c-octahydro-1H-indolo[2,3-c]quinoline-6-carboxylic acid] | < 3.70
29 | COc1ccc2[nH]c3c(c2c1)CCN1CCNC(=O)C31 (stereo not drawn) [Example 192, 9-methoxy-3,4,6,7,12,12b-hexahydropyrazino[1′,2′:1,2]pyrido[3,4-b]indol-1(2H)-one] | < 3.70
30 | COc1ccc2[nH]c3c(c2c1)CC(Cc1ccccc1)NC3C(=O)O (stereo not drawn) [Example 193, 3-benzyl-6-methoxy-2,3,4,9-tetrahydro-1H-beta-carboline-1-carboxylic acid] | < 3.70
31 | O=C(O)C1NCCc2c1[nH]c1c(OCc3ccccc3)cccc21 (stereo not drawn) [Example 194, 8-(benzyloxy)-2,3,4,9-tetrahydro-1H-beta-carboline-1-carboxylic acid] | < 3.70
32 | COC(=O)C1c2[nH]c3ccc(OC)cc3c2CCN1CCNC(=O)OC(C)(C)C (stereo not drawn) [Example 195, methyl 2-{2-[(tert-butoxycarbonyl)amino]ethyl}-6-methoxy-2,3,4,9-tetrahydro-1H-beta-carboline-1-carboxylate] | < 3.70
33 | O=C(O)C1NCCc2c1[nH]c1ccc(OCc3ccccc3Cl)cc21 (stereo not drawn) [Example 196, 6-[(2-chlorobenzyl)oxy]-2,3,4,9-tetrahydro-1H-beta-carboline-1-carboxylic acid hydrochloride] | < 3.70
34 | CCC(CC)CN1CCc2c([nH]c3ccc(OC)cc23)C1C(=O)O (stereo not drawn) [Example 197, sodium 2-(2-ethylbutyl)-6-methoxy-2,3,4,9-tetrahydro-1H-beta-carboline-1-carboxylate] | < 3.70
35 | O=C(O)C1NCCc2c1[nH]c1ccc(OCC3CCCCC3)cc21 (stereo not drawn) [Example 198, 6-(cyclohexylmethoxy)-2,3,4,9-tetrahydro-1H-beta-carboline-1-carboxylic acid] | < 3.70
36 | COC(=O)C1c2[nH]c3ccc(OC)cc3c2CCN1C(C)C (stereo not drawn) [Example 199, methyl 2-isopropyl-6-methoxy-2,3,4,9-tetrahydro-1H-beta-carboline-1-carboxylate] | < 3.70
37 | NNC(=O)c1cccc2[nH]c3c(c12)CCNC3C(=O)O (stereo not drawn) [Example 200, 5-(hydrazinocarbonyl)-2,3,4,9-tetrahydro-1H-beta-carboline-1-carboxylic acid trifluoroacetate] | < 3.70
38 | COc1cc2[nH]c3c(c2cc1OC)CCNC3C(=O)O (stereo not drawn) [Example 201, 6,7-dimethoxy-2,3,4,9-tetrahydro-1H-beta-carboline-1-carboxylic acid trifluoroacetate] | < 3.70
39 | COc1ccc2c3c([nH]c2c1)C(Cc1ccc(OC)c(OC)c1OC)(C(=O)O)NCC3 (stereo not drawn) [Example 203, 7-methoxy-1-[(2,3,4-trimethoxyphenyl)methyl]-2,3,4,9-tetrahydro-1H-beta-carboline-1-carboxylic acid, acetate (1:1)] | < 3.70
40 | O=C(O)C1(Cc2ccc3c(c2)OCO3)NCCc2c1[nH]c1ccccc21 (stereo not drawn) [Example 204, 1-[(benzodioxolan-5-yl)methyl]-2,3,4,9-tetrahydro-1H-beta-carboline-1-carboxylic acid] | < 3.70
41 | COc1ccc2[nH]c3c(c2c1)CC(C(F)(F)F)NC3C(=O)O (stereo not drawn) [Example 205, 6-methoxy-3-(trifluoromethyl)-2,3,4,9-tetrahydro-1H-beta-carboline-1-carboxylic acid] | < 3.70
42 | COc1ccc2[nH]c3c(c2c1)CCN1CC(C)NC(=O)C31 (stereo not drawn) [Example 206, 9-methoxy-3-methyl-3,4,6,7,12,12b-hexahydropyrazino[1′, 2′:1 , 2]pyrido[3,4-b]indol-1(2H)-one] | < 3.70

— patent US20050137220A1 (Pharmacia Corporation, priority 2003, published 2005)
